From patent US20260085062A1, “NOVEL COMPOUNDS AS CK2 INHIBITORS” (Cambridge Enterprise Limited, priority 2022, published 2026)

Tests used:
CK2α = target: T1, CK2α (Homo sapiens, UniProt P68400); test: Biochemical assay for inhibitors of CK2α kinase activity (ADP-Glo); details: 0.2 nM CK2α, 50 μM peptide substrate, 15 μM ATP, read-out: Assay 1: CK2α Enzyme IC50
T1 construct: CK2α (residues 2-329) was produced in Escherichia coli BL21 (DE3) for kinase activity screening; His6 (N, cleaved yes); made in house; host or cells: Escherichia coli BL21 (DE3)
T1 sequence (P68400 2-329): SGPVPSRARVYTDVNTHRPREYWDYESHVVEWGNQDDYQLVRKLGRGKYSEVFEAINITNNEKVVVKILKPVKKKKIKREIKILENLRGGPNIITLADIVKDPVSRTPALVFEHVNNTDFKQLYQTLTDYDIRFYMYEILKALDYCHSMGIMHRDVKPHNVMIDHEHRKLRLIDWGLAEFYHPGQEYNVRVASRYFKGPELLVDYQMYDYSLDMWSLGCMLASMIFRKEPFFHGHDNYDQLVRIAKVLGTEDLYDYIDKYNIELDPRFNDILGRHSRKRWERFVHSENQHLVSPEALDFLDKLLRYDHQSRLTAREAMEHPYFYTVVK

CLK2 = target: T2, CLK2 (Homo sapiens, UniProt P49760); test: Biochemical assay for inhibitors of CLK2 kinase activity (ADP-Glo); details: 20 nM CLK2, 50 μM peptide substrate, 100 μM ATP, read-out: Assay 2: CLK2 Enzyme IC50
T2 construct: purchased Carna Biosciences 04-127
T2 sequence (P49760 whole entry): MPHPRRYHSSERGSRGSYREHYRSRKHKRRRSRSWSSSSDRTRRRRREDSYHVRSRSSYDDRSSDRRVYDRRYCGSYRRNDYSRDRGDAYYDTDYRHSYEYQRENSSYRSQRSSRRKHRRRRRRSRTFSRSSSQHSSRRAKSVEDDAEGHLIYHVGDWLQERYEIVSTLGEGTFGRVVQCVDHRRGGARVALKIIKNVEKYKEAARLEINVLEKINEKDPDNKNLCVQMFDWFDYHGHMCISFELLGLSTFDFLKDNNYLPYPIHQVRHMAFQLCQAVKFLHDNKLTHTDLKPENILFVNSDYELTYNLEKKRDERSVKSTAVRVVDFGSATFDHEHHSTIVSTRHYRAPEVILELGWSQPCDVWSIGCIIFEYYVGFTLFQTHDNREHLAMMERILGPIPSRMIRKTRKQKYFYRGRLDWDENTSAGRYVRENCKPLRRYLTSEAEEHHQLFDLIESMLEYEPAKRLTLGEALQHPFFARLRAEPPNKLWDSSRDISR

intracellular CK2α = target: T3, intracellular CK2α (Homo sapiens, UniProt P19784); test: Cell-based NanoBRET assay for inhibitor binding to intracellular CK2α; details: HCT116 cells transiently transfected with CSNK2A2-NanoLuc fusion vector; Tracer K-5; 2 h; read-out: Assay 3: NanoBRET ™ assay for binding to intracellular CK2α
T3 construct: host or cells: HCT116 (ATCC CCL-247)
T3 sequence (P19784 whole entry, the tested form may be a part): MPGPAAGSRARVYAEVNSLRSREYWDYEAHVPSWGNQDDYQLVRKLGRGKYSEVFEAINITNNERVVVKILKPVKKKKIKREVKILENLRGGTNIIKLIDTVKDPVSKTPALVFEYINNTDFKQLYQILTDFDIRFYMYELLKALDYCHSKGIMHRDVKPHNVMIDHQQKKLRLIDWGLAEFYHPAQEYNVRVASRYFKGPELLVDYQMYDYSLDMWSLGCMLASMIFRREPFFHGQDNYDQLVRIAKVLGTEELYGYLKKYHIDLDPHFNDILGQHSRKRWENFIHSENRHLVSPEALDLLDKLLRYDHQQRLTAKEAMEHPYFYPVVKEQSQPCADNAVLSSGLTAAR
In short: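 Living cells expressing NanoLuc-CK2α fusion were given a fixed tracer concentration, and compounds competitively displaced the reversibly bound tracer. Donor (450 nm) and acceptor (610 or 630 nm) emissions were read; BRET ratio = (acceptor/donor)×1,000, giving apparent intracellular affinity.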

Compound	IC50 (CK2α) [nM]	IC50 (CLK2) [nM]	IC50 (intracellular CK2α) [nM]
FC(F)(F)c1ccc2[nH]c(CNCCCCOCCNc3cccc4[nH]ncc34)cc2c1 [Example 94]	203	5790	29300
Fc1cc(CNCCCCOCCNc2cc(-c3ccncc3)c(F)c3[nH]ncc23)cc(F)c1OC(F)(F)F [Example 176, N-(2-(4-((3,5-difluoro-4-(trifluoromethoxy)benzyl)amino)butoxy)ethyl)-7-fluoro-6-(pyridin-4-yl)-1H-indazol-4-amine]	5.99	332	217
FC(F)(F)Oc1ccc(CNCCCOCCCOc2cc(-n3cnnc3)cc3[nH]ncc23)cc1Cl [Example 69, 3-(3-((6-(4H-1,2,4-triazol-4-yl)-1H-indazol-4-yl)oxy)propoxy)-N-(3-chloro-4-(trifluoromethoxy)benzyl)propan-1-amine]	46.6	688	2850
O=C(CCNCc1ccc(OC(F)(F)F)c(Cl)c1)NCCC(=O)Nc1cc(-n2cnnc2)cc2[nH]ncc12 [Example 18, N-(6-(4H-1,2,4-triazol-4-yl)-1H-indazol-4-yl)-3-(3-((3-chloro-4-(trifluoromethoxy)benzyl)amino)propanamido)propanamide]	2.81	1620	4420
Cn1c(CNCCCCOCCNc2cc(-n3cnnc3)cc3[nH]ncc23)cc2cc(C(F)(F)F)ccc21 [Example 51, N-(2-(4-(((1-methyl-5-(trifluoromethyl)-1H-indol-2-yl)methyl)amino)butoxy)ethyl)-6-(4H-1,2,4-triazol-4-yl)-1H-indazol-4-amine]	0.71	225	72.1
O=C(CCNCc1cccc(CCO)c1)NCCCNc1cc(-n2cnnc2)cc2[nH]ncc12 [Example 40, N-(3-((6-(4H-1,2,4-triazol-4-yl)-1H-indazol-4-yl)amino)propyl)-3-((3-(2-hydroxyethyl)benzyl)amino)propanamide]	9.06	87.5	> 50000
FC(F)(F)Oc1ccc(CNCCCCOCCNc2cc(-c3ccnnc3)cc3[nH]nnc23)cc1Cl [Example 99, N-(2-(4-((3-chloro-4-(trifluoromethoxy)benzyl)amino)butoxy)ethyl)-6-(pyridazin-4-yl)-1H-benzo[d][1,2,3]triazol-4-amine]	20.1	28000	1010
N-(2-(4-((3-chloro-4-(trifluoromethoxy)benzyl)amino)butoxy)ethyl)-6-(azetidine-4-yl)-1H-benzo[d][1,2,3]triazol-4-amine [Example 127]	5.06	1380	306
FC(F)(F)c1ccc2[nH]c(CNCCCCOCCNc3cc(-c4ccnnc4)cc4[nH]ncc34)cc2c1 [Example 93, 6-(pyridazin-4-yl)-N-(2-(4-(((5-(trifluoromethyl)-1H-indol-2-yl)methyl)amino)butoxy)ethyl)-1H-indazol-4-amine]	0.77	569	180
OCc1cc(F)cc(CNCCCCOC2CN(c3cc(-n4cnnc4)cc4[nH]ncc34)C2)c1 [Example 125, (3-(((4-((1-(6-(4H-1,2,4-triazol-4-yl)-1H-indazol-4-yl)azetidin-3-yl)oxy)butyl)amino)methyl)-5-fluorophenyl)methanol]	162	152	49200
OCc1cc(CNCCCCOC2CN(c3cc(-n4cnnc4)cc4[nH]ncc34)C2)cc(C(F)(F)F)c1 [Example 104, (3-(((4-((1-(6-(4H-1,2,4-triazol-4-yl)-1H-indazol-4-yl)azetidin-3-yl)oxy)butyl)amino)methyl)-5-(trifluoromethyl)phenyl)methanol]	64.2	264	14900
c1cc2[nH]c(CNCCCCOCCNc3cc(-c4cnoc4)cc4[nH]ncc34)cc2cc1OC1CCC1 [Example 98, N-(2-(4-(((5-cyclobutoxy-1H-indol-2-yl)methyl)amino)butoxy)ethyl)-6-(isoxazol-4-yl)-1H-indazol-4-amine]	0.82	122	105
CN(CCCNc1cc(-n2cnnc2)cc2[nH]ncc12)C(=O)CCNCc1ccc(OC(F)(F)F)c(Cl)c1 [Example 20, N-(3-((6-(4H-1,2,4-triazol-4-yl)-1H-indazol-4-yl)amino)propyl)-3-((3-chloro-4-(trifluoromethoxy)benzyl)amino)-N-methylpropanamide]	23.5	158	3300
OCc1cc(F)cc(CNCCCCOC2CN(c3cc(-c4ccnnc4)cc4[nH]ncc34)C2)c1 [Example 110, (3-fluoro-5-(((4-((1-(6-(pyridazin-4-yl)-1H-indazol-4-yl)azetidin-3-yl)oxy)butyl)amino)methyl)phenyl)methanol]	384	2720	20600
N#CCc1cc(CNCCCCOC2CN(c3cc(-n4cnnc4)cc4[nH]ncc34)C2)cc(C(F)(F)F)c1 [Example 105, 2-(3-(((4-((1-(6-(4H-1,2,4-triazol-4-yl)-1H-indazol-4-yl)azetidin-3-yl)oxy)butyl)amino)methyl)-5-(trifluoromethyl)phenyl)acetonitrile]	21.6	167	5340
FC(F)(F)Oc1ccc(CNCCCCOC2CN(c3cc(-c4ccnnc4)cc4[nH]ncc34)C2)cc1Cl [Example 107, N-(3-chloro-4-(trifluoromethoxy)benzyl)-4-((1-(6-(pyridazin-4-yl)-1H-indazol-4-yl)azetidin-3-yl)oxy)butan-1-amine]	28.1	2640	3740
COc1cc(-c2cc(NCCCNC(=O)CCNCc3ccc(-c4ccccc4)c(Cl)c3)c3cn[nH]c3c2)ccn1 [Example 22, 3-(((2-Chloro-[1,1′-biphenyl]-4-yl)methyl)amino)-N-(3-((6-(2-methoxypyridin-4-yl)-1H-indazol-4-yl)amino)propyl)propanamide]	1.35	1120	363

The remaining lines, values ahead:

IC50 (CK2α) [nM]	IC50 (CLK2) [nM]	IC50 (intracellular CK2α) [nM]	Compound
0.64	71	108	N#Cc1[nH]ncc1-c1cc(NCCCNC(=O)CCNCc2ccc(OC(F)(F)F)c(Cl)c2)c2cn[nH]c2c1 [Example 156, 3-((3-chloro-4-(trifluoromethoxy)benzyl)amino)-N-(3-((6-(5-cyano-1H-pyrazol-4-yl)-1H-indazol-4-yl)amino)propyl)propanamide]
4.72	271	347	FC(F)(F)c1ccc2[nH]c(CNCCCCOCCOc3cc(-c4cnoc4)cc4[nH]ncc34)cc2c1 [Example 144, 4-(2-((6-(isoxazol-4-yl)-1H-indazol-4-yl)oxy)ethoxy)-N-((5-(trifluoromethyl)-1H-indol-2-yl)methyl)butan-1-amine]
0.41	227	21.4	C[C@@H](CCCOCCNc1cc(-c2cnnc(O)c2)cc2[nH]ncc12)NCc1cc(Cc2cnco2)cc(OC(F)(F)F)c1 [Example 195, (S)-5-(4-((2-((4-((3-(oxazol-5-ylmethyl)-5-(trifluoromethoxy)benzyl)amino)pentyl)oxy)ethyl)amino)-1H-indazol-6-yl)pyridazin-3-ol]
0.57	133	842	CNc1n[nH]c2cc(-n3cnnc3)cc(NCCCNC(=O)CCNCc3ccc(OC(F)(F)F)c(Cl)c3)c12 [Example 191, 3-((3-chloro-4-(trifluoromethoxy)benzyl)amino)-N-(3-((3-(methylamino)-6-(4H-1,2,4-triazol-4-yl)-1H-indazol-4-yl)amino)propyl)propanamide]
49.7	5820	> 50000	FC(F)(F)c1ccc2[nH]c(CNCCCCOC3CN(c4cc(-n5cnnc5)cc5[nH]nnc45)C3)cc2c1 [Example 152, 4-((1-(6-(4H-1,2,4-triazol-4-yl)-1H-benzo[d][1,2,3]triazol-4-yl)azetidin-3-yl)oxy)-N-((5-(trifluoromethyl)-1H-indol-2-yl)methyl)butan-1-amine]
6.53	807	402	O=C(CCNCc1ccc(OC(F)(F)F)c(Cl)c1)NCCCNc1cc(-c2ccncc2F)cc2[nH]ncc12 [Example 162, 3-((3-chloro-4-(trifluoromethoxy)benzyl)amino)-N-(3-((6-(3-fluoropyridin-4-yl)-1H-indazol-4-yl)amino)propyl)propanamide]
10.7	1910	1240	O=C(CCNCc1ccc(OC(F)(F)F)c(Cl)c1)NCCCNc1cc(-c2cocn2)cc2[nH]ncc12 [Example 175, 3-((3-chloro-4-(trifluoromethoxy)benzyl)amino)-N-(3-((6-(oxazol-4-yl)-1H-indazol-4-yl)amino)propyl)propanamide]
